Results on one compound are retold here after patent US9921163B2, “Method and device for detecting analytes” (IMEC VZW, priority 2013, dated 2018).

A short description of this assay: SERS monitoring of boronic acid derivative binding to diol-modified SERS substrate (flow cell). The source says:
During the experiments, one type of gold nanostructured SERS substrates were applied. Hereto, a bare SiO2 substrate was cleaned prior to the deposition of polystyrene beads with a diameter of 100 nm (obtained from Thermo Fisher Scientific). Due to electrostatic forces, the nanoparticles form a closed-packed layer on the SiO2 substrate. Then, the substrate was carefully rinsed with H2O. Afterwards, a thin layer of Au (˜50 nm) was deposited onto the polystyrene-coated SiO2 substrate using sputter deposition. The as such obtained SERS substrates were cleaned with an aceton-H2O mixture and dried with a stream of N2. Additionally, the samples were cleaned using UV-O3 treatment for 15 min prior to the experiments.
The SERS substrates were immerged into a solution containing 1 mM thiolated glucose for 3 days at room temperature in the dark (i.e. 1-Thio-β-D-glucose sodium salt dihydrate obtained from Toronto Research Chemicals). […]
The SERS substrates functionalized with the thiolated glucose molecules were mounted into a home-made flow cell connected to a peristaltic pump system. […] The corresponding Raman signal was monitored using a Raman setup of LabRAM. […] FIG. 5 represents the SERS intensity monitored at 1075±1 cm^−1 using a time interval of 25 s. […] The response was also measured in real time as represented in FIG. 8. […]

Turning to `OB(O)c1ccccc1` [PBA, Phenyl boronic acid], the “SERS intensity at 1075±1 cm^−1 (PBA binding to immobilized thiolated glucose)” value (1 mM PBA in carbonate buffer, 785 nm, 0.5 mW, 25 s interval) was “an increase of the signal is obtained over time”. The “SERS response of PBA interacting with immobilized thiolated glucose in presence of human serum albumin” value (human serum albumin 2000 mg/dl in carbonate mixed 1/1 with 1 mM PBA) was “a clear SERS response”.
